pEC50, pIC50, pKi: −log10 of the molar value. Calls of active or inactive are those of the source. No cut-off for these calls is given here.
Tests used:
Melanocortin receptor 4 [1] = biological target: T1, Melanocortin receptor 4 (Homo sapiens, UniProt P32245); experiment: Displacement of [125I]NDP-MSH from human MC4 receptor expressed in HEK293 cells; type: cell-based
Rattus norvegicus = experiment: Decrease in cumulative food intake in high-fat diet fed CD rat at 5 mg/kg, ip after 1 to 6 hrs; type: functional, organism-based; design: dose 5 mg/kg
Melanocortin receptor 4 [2] = biological target: T1, Melanocortin receptor 4; experiment: Intrinsic activity at human MC4 receptor expressed in CHO cells assessed as cAMP accumulation relative to alpha-MSH; type: functional, cell-based
Melanocortin receptor 4 [3] = biological target: T1, Melanocortin receptor 4; experiment: Antagonist activity at human MC4 receptor expressed in CHO cells assessed as inhibition of alpha-MSH-stimulated of cAMP production by ELISA; type: functional, cell-based
Melanocortin receptor 5 = Melanocortin receptor 5 (Homo sapiens, UniProt P33032); experiment: Binding affinity at human MC5 receptor
Melanocortin receptor 3 = Melanocortin receptor 3 (Homo sapiens, UniProt P41968); experiment: Binding affinity at human MC3 receptor
[4] = biological target: Melanocyte-stimulating hormone receptor (Homo sapiens, UniProt Q01726); experiment: Binding affinity at human MC1 receptor at 10 uM
Melanocortin receptor 4 [5] = biological target: T1, Melanocortin receptor 4; experiment: Agonist activity at human MC4 receptor expressed in CHO cells assessed as cAMP accumulation by ELISA; type: functional, cell-based

T1 sequence (P32245 whole entry): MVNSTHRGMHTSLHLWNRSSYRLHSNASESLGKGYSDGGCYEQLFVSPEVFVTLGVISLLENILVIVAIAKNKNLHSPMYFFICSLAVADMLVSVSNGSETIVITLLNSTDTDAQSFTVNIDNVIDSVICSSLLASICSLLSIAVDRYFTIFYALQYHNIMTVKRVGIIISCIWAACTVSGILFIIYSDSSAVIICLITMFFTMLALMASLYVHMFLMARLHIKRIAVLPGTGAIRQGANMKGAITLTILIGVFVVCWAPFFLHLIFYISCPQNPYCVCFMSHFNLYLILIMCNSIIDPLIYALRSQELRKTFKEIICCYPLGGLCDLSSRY
Sequence of Melanocortin receptor 5 (P33032 whole entry): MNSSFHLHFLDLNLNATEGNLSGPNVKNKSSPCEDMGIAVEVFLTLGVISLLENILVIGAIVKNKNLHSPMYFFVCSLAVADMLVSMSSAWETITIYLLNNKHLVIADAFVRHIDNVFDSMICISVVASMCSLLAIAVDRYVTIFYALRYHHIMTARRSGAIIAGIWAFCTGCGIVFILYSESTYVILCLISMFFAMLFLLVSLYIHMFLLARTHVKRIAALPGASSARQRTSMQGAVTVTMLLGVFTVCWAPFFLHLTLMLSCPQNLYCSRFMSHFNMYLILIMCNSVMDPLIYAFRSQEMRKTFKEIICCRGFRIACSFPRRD
Sequence of Melanocyte-stimulating hormone receptor (Q01726 whole entry, looked up): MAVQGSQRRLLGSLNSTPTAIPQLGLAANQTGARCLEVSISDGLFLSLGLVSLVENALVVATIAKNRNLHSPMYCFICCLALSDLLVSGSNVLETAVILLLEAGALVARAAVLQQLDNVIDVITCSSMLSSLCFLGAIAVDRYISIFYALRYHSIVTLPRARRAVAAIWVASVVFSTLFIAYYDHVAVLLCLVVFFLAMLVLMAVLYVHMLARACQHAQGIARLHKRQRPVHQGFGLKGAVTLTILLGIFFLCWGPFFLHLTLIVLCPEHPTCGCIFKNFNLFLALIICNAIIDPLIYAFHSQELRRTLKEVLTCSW
Sequence of Melanocortin receptor 3 (P41968 whole entry): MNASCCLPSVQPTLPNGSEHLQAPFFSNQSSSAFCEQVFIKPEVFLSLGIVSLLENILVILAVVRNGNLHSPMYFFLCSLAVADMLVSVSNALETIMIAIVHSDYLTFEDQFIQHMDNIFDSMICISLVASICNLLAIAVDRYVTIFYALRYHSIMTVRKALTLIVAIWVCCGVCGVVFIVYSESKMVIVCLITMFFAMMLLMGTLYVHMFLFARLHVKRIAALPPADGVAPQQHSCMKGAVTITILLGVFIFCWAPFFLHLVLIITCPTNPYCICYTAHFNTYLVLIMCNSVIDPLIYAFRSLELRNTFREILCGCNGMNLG

Row | Structure (SMILES) | pKi (Melanocortin receptor 4 [1]) | Intrinsic activity (Melanocortin receptor 4 [2]) | other results
1 | CC(C)[C@H](N)c1cccc(F)c1N1CCN(C(=O)[C@@H]2CN(C3CCC3)C[C@H]2c2ccc(Cl)cc2)CC1 | 7.49 |  | 
2 | CCNC(C)Cc1cccc(C(F)(F)F)c1 (stereo not drawn) |  |  | Activity (Rattus norvegicus): Active
3 | Cc1ccc(N2CCN(C(=O)[C@@H]3CN(C(=O)CCCc4ccccc4)C[C@H]3c3ccc(Cl)cc3)CC2)c([C@@H](N)C(C)C)c1 | 7.00 | 0% | 
4 | CC(C)[C@H](N)c1cccc(F)c1N1CCN(C(=O)[C@@H]2CN(C(=O)C3CCCCC3)C[C@H]2c2ccc(Cl)cc2)CC1 | 6.46 |  | 
5 | CC(C)[C@H](N)c1cccc(F)c1N1CCN(C(=O)[C@@H]2CN(C(=O)C3CC3)C[C@H]2c2ccc(Cl)cc2)CC1 | 7.51 |  | 
6 | Cc1ccc(N2CCN(C(=O)[C@H]3CN(C4CCOCC4)C[C@@H]3c3ccc(Cl)cc3)CC2)c([C@@H](N)C(C)C)c1 | 8.07 | 18% | pIC50 (Melanocortin receptor 4 [3]): 7.19; pKi (Melanocortin receptor 5): 6.42; pKi (Melanocortin receptor 3): 5.85; inhibition [4]: 33%
7 | CCCC(=O)N1C[C@@H](C(=O)N2CCN(c3ccc(C)cc3[C@@H](N)C(C)C)CC2)[C@H](c2ccc(Cl)cc2)C1 | 7.17 | 14% | 
8 | CC(C)C[C@H](N)c1cc(C(F)(F)F)ccc1N1CCN(C(=O)[C@@H]2CN(S(C)(=O)=O)C[C@H]2c2ccc(Cl)cc2)CC1 | 7.02 | 34% | 
9 | Cc1ccc(N2CCN(C(=O)[C@@H]3CN(Cc4ccccc4)C[C@H]3c3ccc(Cl)cc3)CC2)c([C@@H](N)C(C)C)c1 | 7.44 | 52% | 
10 | CC(C)C[C@H](N)c1cc(C(F)(F)F)ccc1N1CCN(C(=O)[C@@H]2CNC[C@H]2c2ccc(Cl)cc2)CC1 | 7.09 | 34% | 
11 | CC(C)C[C@H](N)c1cc(C(F)(F)F)ccc1N1CCN(C(=O)[C@@H]2CN(c3ccccc3)C[C@H]2c2ccc(Cl)cc2)CC1 | 6.59 | 24% | 
12 | CCN1CCC(N2C[C@@H](C(=O)N3CCN(c4ccc(C)cc4[C@@H](N)C(C)C)CC3)[C@H](c3ccc(Cl)cc3)C2)CC1 | 7.74 | 3% | 
13 | Cc1ccc(N2CCN(C(=O)C3CN(C4CCOCC4)CC3c3ccc(Cl)cc3)CC2)c([C@@H](N)C(C)C)c1 (stereo partly drawn) | 7.92 | 36% | 
14 | CC(C)[C@H](N)c1cccc(F)c1N1CCN(C(=O)[C@@H]2CN(C(C)C)C[C@H]2c2ccc(Cl)cc2)CC1 |  | 86% | 
15 | CC(C)[C@H](N)c1cccc(F)c1N1CCN(C(=O)[C@@H]2CN(CCO)C[C@H]2c2ccc(Cl)cc2)CC1 | 6.24 |  | 
16 | CC(C)[C@H](N)c1cccc(F)c1N1CCN(C(=O)[C@@H]2CN(CCC(F)(F)F)C[C@H]2c2ccc(Cl)cc2)CC1 | 6.69 |  | 
17 | Cc1ccc(N2CCN(C(=O)[C@@H]3CN(C4CCCCC4)C[C@H]3c3ccc(Cl)cc3)CC2)c([C@@H](N)C(C)C)c1 | 8.18 | 21% | 
18 | CC(C)C[C@H](N)c1cc(C(F)(F)F)ccc1N1CCN(C(=O)[C@@H]2CN(C(=O)OC(C)(C)C)C[C@H]2c2ccc(Cl)cc2)CC1 | 6.41 | 32% | 
19 | CC(C)[C@H](N)c1cccc(F)c1N1CCN(C(=O)[C@H]2CN(Cc3ccccc3)C[C@@H]2c2ccc(Cl)cc2)CC1 | 7.01 | 3% | 
20 | CC(C)[C@H](N)c1cc(C(F)(F)F)ccc1N1CCN(C(=O)CCc2ccc(Cl)cc2Cl)CC1 | 7.13 |  | 
21 | Cc1ccc(N2CCN(C(=O)[C@@H]3CN(C(=O)OC(C)(C)C)C[C@H]3c3ccc(Cl)cc3)CC2)c([C@@H](N)C(C)C)c1 | 7.82 | 0% | 
22 | CC(=O)N1C[C@@H](C(=O)N2CCN(c3ccc(C(F)(F)F)cc3[C@@H](N)CC(C)C)CC2)[C@H](c2ccc(Cl)cc2)C1 | 7.18 | 72% | pEC50 (Melanocortin receptor 4 [5]): 5.72
23 | CC(C)[C@H](N)c1cc(C(F)(F)F)ccc1N1CCN(C(=O)[C@H](C)Cc2ccc(Cl)cc2Cl)CC1 | 7.59 |  | 
24 | CC(C)[C@H](N)c1cccc(F)c1N1CCN(C(=O)[C@@H]2CN(C3CCCCC3)C[C@H]2c2ccc(Cl)cc2)CC1 | 8.03 | 49% | 
25 | CC(C)[C@H](N)c1cc(C(F)(F)F)ccc1N1CCN(C(=O)[C@@H]2CN(Cc3ccccc3)C[C@H]2c2ccc(Cl)cc2Cl)CC1 | 6.21 |  | 

Row | Structure (SMILES) | pKi (Melanocortin receptor 4 [1]) | Intrinsic activity (Melanocortin receptor 4 [2]) | other results
26 | CC(=O)N1C[C@@H](C(=O)N2CCN(c3ccc(C)cc3[C@@H](N)C(C)C)CC2)[C@H](c2ccc(Cl)cc2)C1 | 6.96 | 35% | 
27 | Cc1ccc(N2CCN(C(=O)[C@@H]3CN(C(=O)C4CCC4)C[C@H]3c3ccc(Cl)cc3)CC2)c([C@@H](N)C(C)C)c1 | 7.11 | 22% | 
28 | CC(C)C[C@H](N)c1cc(C(F)(F)F)ccc1N1CCN(C(=O)[C@@H]2CN(Cc3ccccc3)C[C@H]2c2ccc(Cl)cc2)CC1 | 6.92 | 52% | pEC50 (Melanocortin receptor 4 [5]): 5.14
29 | COCC(C)N1C[C@@H](C(=O)N2CCN(c3ccc(C)cc3[C@@H](N)C(C)C)CC2)[C@H](c2ccc(Cl)cc2)C1 (stereo partly drawn) | 7.19 | 36% | 
30 | Cc1ccc(N2CCN(C(=O)[C@@H]3CN(C(=O)CCc4ccccc4)C[C@H]3c3ccc(Cl)cc3)CC2)c([C@@H](N)C(C)C)c1 | 7.12 | 0% | 
31 | CC(C)[C@H](N)c1cccc(F)c1N1CCN(C(=O)[C@@H]2CN(C3CCCC3)C[C@H]2c2ccc(Cl)cc2)CC1 | 7.59 | 80% | pEC50 (Melanocortin receptor 4 [5]): 6.40
32 | CC(C)C[C@H](N)c1cc(C(F)(F)F)ccc1N1CCN(C(=O)[C@@H]2CN(C(=O)c3ccccc3)C[C@H]2c2ccc(Cl)cc2)CC1 | 7.52 | 3% | 
33 | CC(C)C[C@H](N)c1cc(C(F)(F)F)ccc1N1CCN(C(=O)[C@@H]2CN(CCN)C[C@H]2c2ccc(Cl)cc2)CC1 | 6.74 | 37% | 
34 | CC(C)C[C@H](N)c1cc(C(F)(F)F)ccc1N1CCN(C(=O)[C@@H]2CN(C(=O)CN)C[C@H]2c2ccc(Cl)cc2)CC1 | 7.02 | 12% | 
35 | CC(C)[C@H](N)c1cccc(F)c1N1CCN(C(=O)[C@@H]2CN(Cc3ccccc3)C[C@H]2c2ccc(Cl)cc2)CC1 | 6.47 | 22% | 
36 | Cc1ccc(N2CCN(C(=O)[C@@H]3CN(C(=O)CCCCc4ccccc4)C[C@H]3c3ccc(Cl)cc3)CC2)c([C@@H](N)C(C)C)c1 | 7.19 | 0% | 
37 | CC(C)C(=O)N1C[C@@H](C(=O)N2CCN(c3c(F)cccc3[C@@H](N)C(C)C)CC2)[C@H](c2ccc(Cl)cc2)C1 | 6.60 |  | 
38 | Cc1ccc(N2CCN(C(=O)[C@@H]3CN(C4CCN(CC(C)C)CC4)C[C@H]3c3ccc(Cl)cc3)CC2)c([C@@H](N)C(C)C)c1 | 8.27 | 1% | pIC50 (Melanocortin receptor 4 [3]): 5.74
39 | CCCC(=O)N1C[C@@H](C(=O)N2CCN(c3c(F)cccc3[C@@H](N)C(C)C)CC2)[C@H](c2ccc(Cl)cc2)C1 | 6.59 |  | 
40 | CC(C)[C@H](N)c1cccc(F)c1N1CCN(C(=O)[C@@H]2CN(C(=O)C(C)(C)C)C[C@H]2c2ccc(Cl)cc2)CC1 | 6.27 |  | 
41 | COc1ccc([C@@H]2CN(C(C)C)C[C@H]2C(=O)N2CCN(c3ccc(C(F)(F)F)cc3[C@@H](N)CC(C)C)CC2)cc1 | 7.17 | 67% | pEC50 (Melanocortin receptor 4 [5]): 6.35
42 | CC(C)[C@H](N)c1cccc(F)c1N1CCN(C(=O)C2CN(Cc3ccccc3)CC2c2ccc(Cl)cc2)CC1 (stereo partly drawn) | 7.03 | 19% | 
43 | CC(C)[C@H](N)c1cc(C(F)(F)F)ccc1N1CCN(C(=O)[C@@H](Cc2ccc(Cl)cc2Cl)N2CCCC2=O)CC1 | 8.35 |  | 
44 | CCC(=O)N1C[C@@H](C(=O)N2CCN(c3ccc(C)cc3[C@@H](N)C(C)C)CC2)[C@H](c2ccc(Cl)cc2)C1 | 7.23 | 31% | 
45 | CC(C)[C@H](N)c1cccc(F)c1N1CCN(C(=O)[C@@H]2CN(C(=O)c3ccccc3)C[C@H]2c2ccc(Cl)cc2)CC1 | 6.80 |  | 
46 | CC(=O)N1C[C@@H](C(=O)N2CCN(c3c(F)cccc3[C@@H](N)C(C)C)CC2)[C@H](c2ccc(Cl)cc2)C1 | 6.66 |  | 
47 | CC(C)[C@H](N)c1cccc(F)c1N1CCN(C(=O)[C@@H]2CN(C)C[C@H]2c2ccc(Cl)cc2)CC1 | 7.09 |  | 
48 | COCC(COC)N1C[C@@H](C(=O)N2CCN(c3ccc(C)cc3[C@@H](N)C(C)C)CC2)[C@H](c2ccc(Cl)cc2)C1 | 6.70 | 27% | 
49 | CC(C)CN1C[C@@H](C(=O)N2CCN(c3c(F)cccc3[C@@H](N)C(C)C)CC2)[C@H](c2ccc(Cl)cc2)C1 | 7.37 | 52% | pEC50 (Melanocortin receptor 4 [5]): 5.85
50 | Cc1ccc(N2CCN(C(=O)[C@@H]3CN(C4CCN(C(C)C)CC4)C[C@H]3c3ccc(Cl)cc3)CC2)c([C@@H](N)C(C)C)c1 | 7.74 | 1% | 

Source: ChEMBL document CHEMBL1137624, “Synthesis and characterization of pyrrolidine derivatives as potent agonists of the human melanocortin-4 receptor” (Bioorg Med Chem Lett, 2007)
